Measurements from EP3822285A1, “VARIANT NISIN PEPTIDES” (University College Cork-National University of Ireland, Cork, priority 2019, dated 2021).
Values after ≈ are worked out from the molar mass of the structure shown. Values joined by “and” are separate entries in the source; they are usually repeats but may differ in a detail not shown here. Identical values can stand only once. Marks after values point to notes of the source that are not given here.

Key:
Assay type in all cases: cell-based
[1] = tested on: L. lactis HP; assay: Deferred antagonism assay; details: producing strain
Procedure: (§1) Mutagenesis of the nisA gene was carried out as described previously (Field et al., 2008). Briefly, saturation mutagenesis was carried out using pDF05 (pCI372-nisA) as template and using oligonucleotides containing an NNK codon in place of each native codon. PCR amplification was performed in a 50 µl reaction containing approximately 0.5 ng of target DNA (pDF05), 1 unit Phusion High-Fidelity DNA polymerase (Finnzymes, Finland), 1 mM dNTPs and 500 ng each of the appropriate forward and reverse oligonucleotide. The reaction was pre-heated at 98°C for 2 min, and then incubated for 29 cycles at 98°C for 30 s, 55°C for 15 s and 72°C for 3 min 30 s, and then finished by incubating at 72°C for 3 min 30 s. Amplified products were treated with Dpn1 (Stratagene) for 60 min at 37°C to digest template DNA and purified using the QIAquick PCR purification kit. Following transformation of E. coli Top 10 cells plasmid DNA was isolated and sequenced using primers pCI372FOR (5' […] 3') and pCI372REV (5' […] 3') to verify that mutagenesis had taken place. Approximately 150 transformants were chosen at random for each position and inoculated into 96-well plates containing GM17 chloramphenicol, incubated overnight and stored at -20°C after addition of 80% glycerol. Deferred antagonism assays were performed by replicating strains on GM17 agar plates and allowing them to grow overnight before overlaying with BHI agar (0.75% w/v agar) seeded with the appropriate indicator strain.
(§2) Previously, site-saturation mutagenesis-based strategies were used to generate strains producing bioengineered nisin derivatives in which all residues not involved in lanthionine ring formation (i.e. I1, T2, 14, S5, L6, P9, G10, K12, G14, A15, L16, M17, G18, N20, M21, K22, A24, H27, S29 130, H31, V32, S33 and K34) were each randomised to potentially all other natural amino acids, or whereby all three residues of the hinge-region (NMK) were randomised simultaneously (Rouse et al., 2012, Healy et al., 2013, Field et al., 2008). […] From this screen 76 variants of interest from the first round of screening were incorporated into a "mini-bank" for subsequent further analysis. The number of indicator strains was increased from five to thirteen to include S. uberis 43382, S. uberis DPC5344, S. dysgalactiae ATCC43078, L. lactis 303, L. cremoris KH, Lactobacillus bulgaricus NCDO2489, Lb. helveticus 2079 and Lb. acidophilus ATCC4356 (Table 1). Following this second round of screening, 6 variants of interest were deemed worthy of closer inspection. DNA sequencing of the mutated nisin gene as well as mass spectrometric analysis of the peptide produced by each strain established that these corresponded to nisin M17Q (methionine at position 17 altered to glutamine), nisin T2L (threonine 2 leucine) nisin HTK, VGA, VGV or VGT (where the hinge residues Asn-Met-Lys have been altered to His-Thr-Lys, Val-Gly-Ala, Val-Gly-Val or Val-Gly-Thr respectively). […] As a result, these derivatives were eliminated from this study, but will be the subject of further investigation as potential anti-mastitis antimicrobials. […] In the case of the derivatives nisin T2L and nisin HTK, the activity appeared reduced and equivalent to nisin A respectively (Figure 1), while improved activity was observed by both derivatives against S. agalactiae ATCC13813 and S. aureus RF122 (Table 2). On this basis, the nisin derivatives M17Q, T2L and HTK were selected for purification and specific activity assays. Purified peptides were subjected to Mass Spectrometry to confirm the correct mass in each case. In the case of T2L and HTK derivatives, the threonine remained in the unmodified form (data not shown).

[2] = tested on: L. lactis MG1363; assay: Deferred antagonism assay; details: producing strain
Procedure: as §1, §2

[3] = tested on: S. agalactiae ATCC13813; assay: Deferred antagonism assay; details: producing strain
Procedure: as §1, §2

[4] = tested on: S. aureus RF122; assay: Deferred antagonism assay; details: producing strain
Procedure: as §1, §2

[5] = tested on: B. longum UCC 44b
Procedure: (§3) Minimum inhibitory concentration determinations were carried out in triplicate in 96 well microtitre plates. 96 well microtitre plates were pre-treated with bovine serum albumin (BSA) prior to addition of the peptides. Briefly, to each well of the microtitre plate 200 µL of phosphate buffered saline (PBS) containing 1% (w/v) bovine serum albumin (PBS/BSA) was added and incubated at 37°C for 30 min. The wells were washed with 200 µL PBS and allowed to dry. Target strains were grown overnight in the appropriate conditions and medium, subcultured into fresh broth and allowed to grow to an OD600 of ∼0.5, diluted to a final concentration of 10^5 cfu ml^-1 in a volume of 0.2 ml. The lyophilised peptides were resuspended in the appropriate media to a stock concentration of 30 µM. Wild type nisin and nisin mutant peptides were adjusted to a 7.5 or 5.0 µM or 500 nM starting concentration and 2-fold serial dilutions of each peptide were made in 96 well plates for a total of 12 dilutions.
(§4) To confirm that the observed enhanced activity of the nisin variants was due to increased specific activity, the activity of purified peptides were assessed using classical broth-based minimum inhibitory concentration (MIC) determination assays. […] Also included were the lactic acid bacteria targets L. lactis MG1363, L. lactis spp. lactis HP, B. longum UCC44b and Lb acidophilus ATCC 4356.

[6] = tested on: Lb. acidophilus ATCC 4356
Procedure: as §3, §4

[7] = tested on: L. lactis HP; assay: Minimum inhibitory concentration assay
Procedure: as §3, §4

[8] = tested on: S. aureus 272; assay: Minimum inhibitory concentration assay
Procedure: as §3, §4

[9] = tested on: S. aureus 513; assay: Minimum inhibitory concentration assay; details: purified peptide
Procedure: as §3, §4

[10] = tested on: S. aureus 5971; assay: Minimum inhibitory concentration assay
Procedure: as §3, §4

[11] = tested on: S. aureus DPC 5243; assay: Minimum inhibitory concentration assay; details: purified peptide
Procedure: as §3, §4

[12] = tested on: S. aureus DPC 5245; assay: Minimum inhibitory concentration assay; details: purified peptide
Procedure: as §3, §4

[13] = tested on: S. aureus DPC 5247; assay: Minimum inhibitory concentration assay; details: purified peptide
Procedure: as §3, §4

[14] = tested on: S. aureus ST528(MRSA); assay: Minimum inhibitory concentration assay
Procedure: as §3, §4

[15] = tested on: S. aureus ST534(MRSA); assay: Minimum inhibitory concentration assay
Procedure: as §3, §4

[16] = tested on: S. aureus strains; assay: Minimum inhibitory concentration assay, panel of S. aureus strains; details: panel of 12 S. aureus isolates; compared to nisin A
Procedure: as §3, §4

[17] = tested on: Thermus scotoductus SE-1; assay: Agar diffusion assay with cell free supernatant of producing strains; details: zone diameter relative to Nisin A wild type (100)
Outline: (§5)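 Cell-free supernatant (50 µl) from overnight nisin A or variant-producing L. lactis cultures placed in wells of Castenholz agar seeded with indicator strain. Plates incubated 55°C for 3 days; zone of clearance measured, reflecting combined peptide yield and specific activity; triplicate.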

[18] = tested on: Thermus thermophilus HB27; assay: as above; details: zone diameter relative to Nisin A wild type (100)
Outline: as §5

[19] = tested on: T. aquaticus; assay: Minimum inhibitory concentration assay (Thermus); details: pure peptide, mean of triplicate assays
Outline: (§6)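 Broth microdilution in Castenholz medium, run in triplicate in BSA-pretreated (1% w/w, 37°C, 30 min, PBS-washed) round-bottom wells with purified peptides. Inoculum ∼10^5 cfu/ml from an OD600 ∼0.5 subculture; 55°C for 3 days. MIC taken as the lowest concentration showing no visible growth.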

[20] = tested on: T. brockianus; assay: Minimum inhibitory concentration assay (Thermus); details: pure peptide, mean of triplicate assays
Outline: as §6

[21] = tested on: T. oshimai; assay: Minimum inhibitory concentration assay (Thermus); details: pure peptide, mean of triplicate assays
Outline: as §6

[22] = tested on: T. rehai; assay: Minimum inhibitory concentration assay (Thermus); details: pure peptide, mean of triplicate assays
Outline: as §6

[23] = tested on: T. scotoductus SE-1; assay: Minimum inhibitory concentration assay (Thermus); details: pure peptide, mean of triplicate assays
Outline: as §6

[24] = tested on: T. thermophilus HB27; assay: Minimum inhibitory concentration assay (Thermus); details: pure peptide, mean of triplicate assays
Outline: as §6

SMILES: C=C(NC(=O)[C@@H](NC(=O)[C@H](Cc1c[nH]cn1)NC(=O)[C@@H](NC(=O)[C@H](CO)NC(=O)[C@@H]1CS[C@@H](C)[C@H]2NC(=O)[C@H](C)NC(=O)[C@H](NC(=O)[C@H](CCCCN)NC(=O)[C@H](CCSC)NC(=O)[C@H](CC(N)=O)NC(=O)[C@@H]3CS[C@@H](C)[C@@H](NC(=O)[C@H](CCCCN)NC(=O)[C@@H]4CS[C@@H](C)[C@@H](NC(=O)[C@@H]5CSC[C@@H](NC(=O)[C@H](CC(C)C)NC(=O)[C@@H](N)[C@@H](C)CC)C(=O)N[C@@H]([C@@H](C)CC)C(=O)NC(=C)C(=O)N[C@@H](CC(C)C)C(=O)N5)C(=O)N5CCC[C@H]5C(=O)NCC(=O)N4)C(=O)NCC(=O)N[C@@H](C)C(=O)N[C@@H](CC(C)C)C(=O)N[C@@H](CCSC)C(=O)NCC(=O)N3)[C@H](C)SC[C@H](NC2=O)C(=O)N[C@@H](Cc2c[nH]cn2)C(=O)N1)[C@@H](C)CC)C(C)C)C(=O)N[C@@H](CCCCN)C(=O)O [T2L, nisin T2L]
- zone of inhibition (area of the zone of inhibition minus the area of the spot) [1]: 134.12 ± 19.00 mm2
- zone of inhibition (area of the zone of inhibition minus the area of the spot) [2]: 80.11 ± 12.18 mm2
- zone of inhibition (area of the zone of inhibition minus the area of the spot) [3]: 194.44 ± 6.22 mm2
- zone of inhibition (area of the zone of inhibition minus the area of the spot) [4]: 100.05 ± 14.96 mm2
- fold decreased activity compared to wild type peptide [5]: 2 fold
- fold reduction in specific activity compared to wild type nisin A [6]: 4 fold
- Specific activity (MIC) ([6]; purified peptide): 0.12 Mg/L and 0.044 µM
- fold reduction in potency ([7]; compared to wild-type nisin A): 2 fold
- Specific activity (MIC) ([7]; purified peptide): 0.4 Mg/L and 0.125 µM
- fold enhanced activity ([8]; compared to nisin A): 4 fold
- Specific activity (MIC) ([8]; purified peptide): 0.75 Mg/L and 0.234 µM
- Specific activity (MIC) [9]: 3 Mg/L and 0.937 µM
- fold improved activity ([10]; compared to nisin A): 16 fold
- Specific activity (MIC) ([10]; purified peptide): 1.5 Mg/L and 0.468 µM
- Specific activity (MIC) [11]: 0.5 Mg/L and 0.156 µM
- Specific activity (MIC) [12]: 0.5 Mg/L and 0.156 µM
- Specific activity (MIC) [13]: 0.5 Mg/L and 0.156 µM
- fold enhanced activity ([14]; S. aureus ST528 (MRSA), compared to nisin A): 4 fold
- Specific activity (MIC) ([14]; S. aureus ST528(MRSA), purified peptide): 0.125 Mg/L and 0.039 µM
- fold enhanced activity ([15]; S. aureus ST 534 (MRSA), compared to nisin A): 4 fold
- Specific activity (MIC) ([15]; S. aureus ST534(MRSA), purified peptide): 0.25 Mg/L and 0.078 µM
- number of S. aureus strains with enhanced specific activity [16]: 9

SMILES: C=C(NC(=O)[C@@H](NC(=O)[C@H](Cc1c[nH]cn1)NC(=O)[C@@H](NC(=O)[C@H](CO)NC(=O)[C@@H]1CS[C@@H](C)[C@H]2NC(=O)[C@H](C)NC(=O)[C@H](NC(=O)[C@H](C)NC(=O)CNC(=O)[C@@H](NC(=O)[C@@H]3CS[C@@H](C)[C@@H](NC(=O)[C@H](CCCCN)NC(=O)[C@@H]4CS[C@@H](C)[C@@H](NC(=O)[C@@H]5CSC[C@@H](NC(=O)/C(=C/C)NC(=O)[C@@H](N)[C@@H](C)CC)C(=O)N[C@@H]([C@@H](C)CC)C(=O)NC(=C)C(=O)N[C@@H](CC(C)C)C(=O)N5)C(=O)N5CCC[C@H]5C(=O)NCC(=O)N4)C(=O)NCC(=O)N[C@@H](C)C(=O)N[C@@H](CC(C)C)C(=O)N[C@@H](CCSC)C(=O)NCC(=O)N3)C(C)C)[C@H](C)SC[C@H](NC2=O)C(=O)N[C@@H](Cc2c[nH]cn2)C(=O)N1)[C@@H](C)CC)C(C)C)C(=O)N[C@@H](CCCCN)C(=O)O [VGA, nisin VGA]
- zone of inhibition (area of the zone of inhibition minus the area of the spot) [1]: 362.16 ± 6.77 mm2
- zone of inhibition (area of the zone of inhibition minus the area of the spot) [2]: 230.92 ± 4.04 mm2
- zone of inhibition (area of the zone of inhibition minus the area of the spot) [3]: 234.96 ± 25.45 mm2
- zone of inhibition (area of the zone of inhibition minus the area of the spot) [4]: 138.17 ± 8.12 mm2
- % of wild type [17]: 127* (0.022) %
- % difference [18]: 169* (0.0002) %
- MIC [19]: 0.0156 µM (≈ 0.05 µg/mL)
- MIC [20]: 0.125 µM (≈ 0.401 µg/mL)
- MIC [21]: 0.0156 µM (≈ 0.05 µg/mL)
- MIC [22]: 0.125 µM (≈ 0.401 µg/mL)
- MIC [23]: 0.125 µM (≈ 0.401 µg/mL)
- MIC [24]: 0.0312 µM (≈ 0.1 µg/mL)
